{"source": "patent US11413315B2", "about": "“Neural stem cell-mediated cancer treatment” (priority 2018, dated 2022)", "key": {"[1]": {"test_system": "OVCAR8.EGFP.ffluc cells", "experiment": "In vitro synergy experiment, Chou-Talalay analysis", "assay_type": "cell-based, human", "details": "cisplatin <1 μM", "experimental": "Tumor cells were plated at 3×10^3 cells per well in 96-well plates. Select wells also received NSC.CRAd-Survivin-pk7 at either a 1:1, 1:10, or 1:100 ratio. […] Cultures were incubated for 3 more days. Upon collection, media were replaced with that containing D-luciferin ([…]), and after a 10-min incubation, the resulting luminescent signal was quantified using a SpectraMax M3 microplate reader (Molecular Devices, CA, USA). Results are expressed as the percentage of surviving cells determined by comparing the luciferase signal of each sample relative to untreated control samples considered 100% viable. […] Each condition was replicated in quadruplet, and the experiment was conducted twice."}, "[2]": {"test_system": "OVCAR8.EGFP flank xenografts", "experiment": "Subcutaneous flank OVCAR8 xenograft model", "assay_type": "in vivo, mouse", "experimental": "Female athymic nude mice 6-8 weeks of age (Charles River) were maintained under specific pathogen-free conditions at the COH Animal Resource Center, and all procedures were reviewed and approved by the COH Animal Care Committee. A subcutaneous flank xenograft model in nude mice was established using an EGFP and firefly luciferase-expressing ovarian cancer cell line, 2×10^6 OVCAR8.EGFP.ffluc. […] The mice were treated for […] with 1 week off in between each cycle. […] Tumor burden was evaluated via caliper measurements twice weekly over a 5-week period.\nMice began treatments approximately 2 weeks after injection of 5 million OVCAR8.EGFP cells, when the tumors were on average 0.5 cm in diameter (Table 3). The mice were treated for two cycles. Each cycle was 2 weeks long, consisting of 1 week on therapy and 1 week off. Tumor burden was evaluated via caliper measurements twice weekly over a 5-week period."}, "[3]": {"test_system": "OVCAR8 peritoneal tumors", "experiment": "PCR biodistribution of NSCs and virus in peritoneal tumors with or without cisplatin", "assay_type": "in vivo", "details": "2 days after administration, three tumors per mouse", "experimental": "Female NOD-SCID mice (Jackson Labs) that were 6-8 weeks old were inoculated with 2 million OVCAR8.eGFP.ffluc cells via i.p. injection. After 3 weeks, mice (n=3) were administered i.p. 2×10^6 Dil-labeled NSC-CRAd-Survivin-pk7. Two days after NSC injection, tumors were harvested. Three tumors per mouse were digested using proteinase K, DNA was extracted (DNA Extraction from fixed tissues kit, Puragene), quantified using a nanodrop, then amplified by PCR using primers for v-Myc and hexon to test for the presence of NSCs and viral particles respectively. GAPDH was used as a loading control (351 bp). DNA purified from unmodified NSCs and NSC-CRAd-Survivin-pk7 was used as a positive control for PCR amplification of the v-Myc gene (replicon size 170 bp), and hexon (179 bp) respectively. Pure water was used as a negative control. PCR products were analyzed by agarose gel electrophoresis and staining of DNA bands with ethidium bromide. […] Sections (10 μm thick) were collected on positively charged slides (Thermo Fisher Scientific), immunostained for hexon (Goat Anti-Adenovirus FITC Conjugated Polyclonal Antibody, AB1056F, Millipore), counterstained with DAPI (1 ug/mL, Sigma), then imaged using the Zeiss Axio Observer Z1 fluorescence microscope (ZEISS Microscopy). […]"}, "[4]": {"test_system": "survivin expression in OVCAR8 cell line", "experiment": "RT-PCR analysis of survivin expression after cisplatin, OVCAR8", "assay_type": "cell-based, human", "details": "up to 2 days of cisplatin exposure; data not shown"}, "[5]": {"test_system": "survivin expression in SKOV3 cell line", "experiment": "RT-PCR analysis of survivin expression after cisplatin, SKOV3", "assay_type": "cell-based, human", "details": "up to 2 days of cisplatin exposure; data not shown"}}}
{"smiles": "N.N.[Cl][Pt][Cl]", "note": "[cisplatin]", "values": [{"measurement": "effect of low doses of cisplatin on OVCAR8 tumor cells", "setting": "[1]", "result": "unaffected"}, {"measurement": "tumor volume doubling time after the first treatment", "setting": "[2]; control 7 days", "result": 13, "unit": "days"}, {"measurement": "tumor volume doubling time after the second treatment", "setting": "[2]; control 15 days", "result": "not significantly different from that of the saline control"}, {"measurement": "hexon DNA detected in tumors (virus)", "setting": "[3]", "result": "Neither hexon nor v-myc DNA was detected"}, {"measurement": "v-myc DNA detected in tumors (NSCs)", "setting": "[3]", "result": "Neither hexon nor v-myc DNA was detected"}, {"measurement": "survivin expression after cisplatin exposure", "setting": "[4]", "result": "did not significantly increase"}, {"measurement": "survivin expression after cisplatin exposure", "setting": "[5]", "result": "did not significantly increase"}]}
